Test results taken from patent US11084814B2, “Pyrido[3, 4-d]pyrimidine derivative and pharmaceutically acceptable salt thereof” (Teijin Pharma Limited, priority 2016, dated 2021).

Tests used:
[1] = biological target: T1, CDK4/cyclin D3 (Homo sapiens, UniProt P11802); assay: Human CDK4/cyclin D3 inhibitory activity (QS S Assist CDK4/Cyclin D3_FP Kit, IMAP fluorescent polarization); format: biochemical; conditions: read-out: CDK4 Activity symbol
T1 construct: purchased Carna Biosciences, Inc. QS S Assist CDK4/Cyclin D3_FP Kit
Method: Human CDK4/Cyclin D3 Inhibitory Activity
(§1) Each compound was analyzed for CDK4/cyclin D3 inhibitory activity with an assay kit (QS S Assist CDK4/Cyclin D3_FP Kit, available from Carna Biosciences, Inc.). This assay kit determines kinase activity on the basis of the IMAP technology by Molecular Devices. Specifically, the kinase activity is determined through quantification of a variation in fluorescent polarization caused by binding of a kinase-phosphorylated fluorescent substance to an IMAP-binding reagent.
Each solution was prepared with the 10× assay buffer attached to the kit or a separately prepared assay buffer having the same composition as the assay buffer attached to the kit. An assay buffer was prepared by 10-fold dilution of the 10× assay buffer with distilled water. The assay buffer contains 20 mM HEPES (pH 7.4), 0.01% Tween20, and 2 mM dithiothreitol. A test compound solution was prepared by dilution of the test compound with dimethyl sulfoxide (DMSO) to a concentration 100 times higher than the final concentration and then 25-fold dilution with the assay buffer to a concentration four times higher than the final concentration. An ATP/substrate/Metal solution was prepared by five-fold dilution of the 5×ATP/substrate/Metal solution attached to the kit with the assay buffer. An enzyme solution was prepared by dilution of the CDK4/cyclin D3 attached to the kit with the assay buffer to a concentration twice higher than the final concentration (final concentration of CDK4/cyclin D3: 12.5 to 25 ng/well). A detection reagent was prepared by five-fold dilution of each of 5×IMAP-binding buffer A and 5×IMAP-binding buffer B with distilled water, mixing of IMAP-binding buffer A with IMAP-binding buffer B at a ratio of 85:15, and 400-fold dilution of the IMAP-binding reagent with the mixed buffer.
(§2) The test compound solution (5 μL/well) and the ATP/substrate/Metal solution (5 μL/well) were added to a 384-well plate, and the enzyme solution or the assay buffer (10 μL/well) was added to the plate (total amount of the reaction mixture: 20 μL/well) for initiation of enzymatic reaction. […] The reaction was performed at room temperature for 45 minutes, and the detection reagent (60 μL/well) was then added to the plate, followed by further reaction for 30 minutes at room temperature under light shielding conditions. Subsequently, fluorescent polarization was determined with a microplate reader at an excitation wavelength of 485 nm and an emission wavelength of 535 nm.
(§3) The percent inhibition of enzyme activity was calculated for each test compound (note: enzyme activity=100% in the case of addition of the enzyme solution and addition of DMSO instead of the test compound solution, whereas enzyme activity […] in the case of addition of the assay buffer instead of the enzyme solution, and addition of DMSO instead of the test compound solution). The percent inhibition of enzyme activity was fitted to a dose-response curve, to determine a 50% inhibitory concentration against CDK4/cyclin D3.
In each table, “+++” corresponds to IC50<10 nM. “++” 10 nM […] IC50<100 nM, and “+” 100 nM≤IC50.

[2] = biological target: T2, CDK2/cyclin A2 (Homo sapiens, UniProt P24941); assay: Human CDK2/cyclin A2 inhibitory activity (QS S Assist CDK2/Cyclin A2_FP Kit, IMAP fluorescent polarization); format: biochemical; conditions: read-out: CDK2 Activity symbol
T2 construct: purchased Carna Biosciences, Inc. QS S Assist CDK2/Cyclin A2_FP Kit
Method: Human CDK2/Cyclin A2 Inhibitory Activity
as §1, with “CDK2/cyclin A2” for “CDK4/cyclin D3”, “CDK2/Cyclin A2_FP” for “CDK4/Cyclin D3_FP”
An assay buffer was prepared by 10-fold dilution of the 10× assay buffer attached to the kit with distilled water, and each solution was prepared with the assay buffer. The assay buffer contained 20 mM HEPES (pH 7.4), 0.01% Tween 20, and 2 mM dithiothreitol. A test compound solution was prepared by dilution of the test compound with dimethyl sulfoxide (DMSO) to a concentration 100 times higher than the final concentration and then 25-fold dilution with the assay buffer to a concentration four times higher than the final concentration. An ATP/substrate/Metal solution was prepared by five-fold dilution of the 5×ATP/substrate/Metal solution attached to the kit with the assay buffer. An enzyme solution was prepared by dilution of the CDK2/cyclin A2 attached to the kit with the assay buffer to a concentration twice higher than the final concentration (final concentration of CDK2/cyclin A2: 2.5 ng/well). A detection reagent was prepared by five-fold dilution of 5×IMAP-binding buffer A with distilled water and 400-fold dilution of the IMAP-binding reagent with the diluted buffer.
as §2, with “60” for “45”
as §3, with “enzyme solution” for “enzyme solution,”, “against CDK2/cyclin A2.” for “against CDK4/cyclin D3.”
In each table, “+++” corresponds to IC50<10 nM, “++” 10 nM≤IC50<100 nM, and “+” 100 nM≤IC50.

T1 sequence (P11802 whole entry): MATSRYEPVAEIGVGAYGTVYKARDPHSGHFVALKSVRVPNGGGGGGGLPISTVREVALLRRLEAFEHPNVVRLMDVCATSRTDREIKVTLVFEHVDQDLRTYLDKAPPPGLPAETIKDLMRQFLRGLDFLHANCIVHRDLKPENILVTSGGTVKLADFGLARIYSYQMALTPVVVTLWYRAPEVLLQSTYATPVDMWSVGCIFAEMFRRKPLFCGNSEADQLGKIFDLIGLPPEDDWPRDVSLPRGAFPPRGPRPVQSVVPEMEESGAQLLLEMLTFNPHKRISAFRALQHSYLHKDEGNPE
T1 sequence (P30281 whole entry partner): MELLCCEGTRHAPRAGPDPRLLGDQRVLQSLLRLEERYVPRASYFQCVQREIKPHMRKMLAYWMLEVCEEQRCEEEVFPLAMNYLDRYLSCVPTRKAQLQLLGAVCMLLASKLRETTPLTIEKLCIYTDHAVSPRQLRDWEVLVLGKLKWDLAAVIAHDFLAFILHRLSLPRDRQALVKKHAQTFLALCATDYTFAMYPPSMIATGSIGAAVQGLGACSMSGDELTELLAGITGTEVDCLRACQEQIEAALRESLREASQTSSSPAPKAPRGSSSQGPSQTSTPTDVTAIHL

Row | IC50 [1] | IC50 [2] | SMILES
1 | < 0.01 µM | ≥ 0.1 µM | C[C@@H](O)c1cc2cnc(Nc3ccc4c(n3)CCNC4)nc2c(N2CCC(F)CC2)n1 [Compound 63]
2 | < 0.01 µM | ≥ 0.1 µM | C[C@@H](O)c1cc2cnc(Nc3ccc4c(n3)CCN(CCO)C4)nc2c(N2CCC(F)CC2)n1 [Compound 112]
3 | 0.01 to 0.1 µM | ≥ 0.1 µM | C[C@@H](O)c1cc2cnc(Nc3ccc4c(n3)CCN(C(=O)Cn3cccn3)C4)nc2c(N2CCCCC2)n1 [Compound 331]
4 | < 0.01 µM | ≥ 0.1 µM | C[C@@H](O)c1cc2cnc(Nc3ccc(CN4CCN(C)CC4)cn3)nc2c(N2CCCCC2)n1 [Compound 56]
5 | < 0.01 µM | ≥ 0.1 µM | C[C@@H](O)c1cc2cnc(Nc3ccc(CN4CCC5(CC4)COC5)cn3)nc2c(N2CCCCC2)n1 [Compound 325]
6 | < 0.01 µM | ≥ 0.1 µM | C[C@@H](O)c1cc2cnc(Nc3ccc4c(n3)CCN(C3CCOCC3)C4)nc2c(N2CCCCC2)n1 [Compound 282]
7 | 0.01 to 0.1 µM | ≥ 0.1 µM | C[C@@H](O)c1cc2cnc(Nc3ccc(N4CCNCC4=O)cn3)nc2c(N2CCOC[C@@H]2C)n1 [Compound 299]
8 | 0.01 to 0.1 µM | ≥ 0.1 µM | C[C@@H](O)c1cc2cnc(Nc3ccc(CN4CCN(CCO)CC4)cn3)nc2c(N2CCOC[C@@H]2C)n1 [Compound 293]
9 | < 0.01 µM | ≥ 0.1 µM | C[C@H]1CCN(c2nc([C@@H](C)O)cc3cnc(Nc4ccc(CN5CCN(CCO)CC5)cn4)nc23)C1 [Compound 99]
10 | < 0.01 µM | ≥ 0.1 µM | C[C@@H](O)c1cc2cnc(Nc3ccc(CN4CCN(CCO)CC4)cn3)nc2c(N2CCCCCC2)n1 [Compound 59]
11 | < 0.01 µM | ≥ 0.1 µM | OCCc1cc2cnc(Nc3ccc(CN4CCNCC4)cn3)nc2c(N2CCCCC2)n1 [Compound 92]
12 | 0.01 to 0.1 µM | ≥ 0.1 µM | C[C@@H](O)c1cc2cnc(Nc3ccc(N4CCN(C)CC4=O)cn3)nc2c(N2CCCC2)n1 [Compound 73]
13 | 0.01 to 0.1 µM | ≥ 0.1 µM | OCCc1cc2cnc(Nc3ccc4c(n3)CCNC4)nc2c(N2CCCCC2)n1 [Compound 95]
14 | 0.01 to 0.1 µM | ≥ 0.1 µM | CC[C@@H](O)c1cc2cnc(Nc3ccc(CN4CCN(CCO)CC4)cn3)nc2c(N2CCCCC2)n1 [Compound 159]
15 | < 0.01 µM | ≥ 0.1 µM | OCCN1CCc2nc(Nc3ncc4cc(CO)nc(N5CCCCC5)c4n3)ccc2C1 [Compound 135]
16 | < 0.01 µM | ≥ 0.1 µM | C[C@@H](O)c1cc2cnc(Nc3ccc4c(n3)CCNC4)nc2c(N2CCC(F)(F)CC2)n1 [Compound 80]
17 | < 0.01 µM | ≥ 0.1 µM | C[C@@H](O)c1cc2cnc(Nc3ccc(O[C@H]4CCCN(CCO)C4)cn3)nc2c(N2CC[C@@H](F)C2)n1 [Compound 254]
18 | < 0.01 µM | ≥ 0.1 µM | C[C@@H](O)c1cc2cnc(Nc3ccc(CN4CCN(C)CC4)cn3)nc2c(N2CCC(C(F)(F)F)CC2)n1 [Compound 144]
19 | 0.01 to 0.1 µM | ≥ 0.1 µM | COC(=O)c1cc2cnc(Nc3ccc(N4CCNCC4)cn3)nc2c(N2CCCCC2)n1 [Compound 25]
20 | 0.01 to 0.1 µM | ≥ 0.1 µM | C[C@@H](O)c1cc2cnc(Nc3ccc4c(n3)CCN(C(=O)Cc3ccncc3)C4)nc2c(N2CCCCC2)n1 [Compound 285]

Row | IC50 [1] | IC50 [2] | SMILES
21 | < 0.01 µM | – | OCc1cc2cnc(Nc3ccc(N4CCNCC4)cn3)nc2c(-c2ccsc2)n1 [Compound 16]
22 | 0.01 to 0.1 µM | – | OCc1cc2cnc(Nc3ccc(N4CCNCC4)cn3)nc2c(-c2ccccc2)n1 [Compound 10]
23 | < 0.01 µM | – | CN1CCN(c2ccc(Nc3ncc4cc(CO)nc(C5=CCCCC5)c4n3)nc2)CC1 [Compound 22]
24 | < 0.01 µM | – | Cc1ccc(-c2nc(CO)cc3cnc(Nc4ccc(N5CCNCC5)cn4)nc23)cc1 [Compound 14]
25 | < 0.01 µM | – | COC(C)c1cc2cnc(Nc3ccc(CN4CCNCC4)cn3)nc2c(N2CCC3CCNC3C2)n1 (stereo not drawn) [Compound 44]
26 | < 0.01 µM | – | Cc1ccc(-c2nc(CO)cc3cnc(Nc4ccc(N5CCN(C)CC5)cn4)nc23)cc1 [Compound 18]
27 | < 0.01 µM | – | COC(C)c1cc2cnc(Nc3ccc(CN4CCNCC4)cn3)nc2c(N2CCCCC2)n1 (stereo not drawn) [Compound 43]
28 | 0.01 to 0.1 µM | – | Cc1ccccc1-c1nc(CO)cc2cnc(Nc3ccc(N4CCNCC4)cn3)nc12 [Compound 15]
29 | < 0.01 µM | – | COCC1CCN(c2nc(C(C)OC)cc3cnc(Nc4ccc(CN5CCNCC5)cn4)nc23)CC1 (stereo not drawn) [Compound 46]
30 | < 0.01 µM | – | OCc1cc2cnc(Nc3ccc(N4CCNCC4)cn3)nc2c(N2CCCCC2)n1 [Compound 9]
31 | < 0.01 µM | – | FC(F)c1cc2cnc(Nc3ccc(N4CCNCC4)cn3)nc2c(-c2ccccc2)n1 [Compound 12]
32 | ≥ 0.1 µM | – | O=C(O)c1cc2cnc(Nc3ccc(N4CCNCC4)cn3)nc2c(N2CCCCC2)n1 [Compound 23]
33 | < 0.01 µM | – | COC(C)c1cc2cnc(Nc3ccc(CN4CCNCC4)cn3)nc2c(N2CCC(CO)CC2)n1 (stereo not drawn) [Compound 45]
34 | < 0.01 µM | – | CC(O)c1cc2cnc(Nc3ccc(CN4CCN(C)CC4)cn3)nc2c(N2CCOCC2C)n1 (stereo not drawn) [Compound 291]
35 | 0.01 to 0.1 µM | – | CN1CCN(c2ccc(Nc3ncc4cc(CO)nc(-c5ccoc5)c4n3)nc2)CC1 [Compound 21]
36 | < 0.01 µM | – | FC(F)c1cc2cnc(Nc3ccc(N4CCNCC4)cn3)nc2c(N2CCCCC2)n1 [Compound 11]
37 | < 0.01 µM | – | CN1CCN(c2ccc(Nc3ncc4cc(CO)nc(-c5ccsc5)c4n3)nc2)CC1 [Compound 20]
38 | < 0.01 µM | – | Cc1ccccc1-c1nc(CO)cc2cnc(Nc3ccc(N4CCN(C)CC4)cn3)nc12 [Compound 19]
39 | < 0.01 µM | – | CN1CCN(c2ccc(Nc3ncc4cc(C(F)F)nc(N5CCCCC5)c4n3)nc2)CC1 [Compound 13]
40 | 0.01 to 0.1 µM | – | OCc1cc2cnc(Nc3ccc(N4CCNCC4)cn3)nc2c(-c2ccoc2)n1 [Compound 17]

Row | SMILES | IC50 [1] | IC50 [2]
41 | CC(O)c1cc2cnc(Nc3ccc(OC4CCCNC4)cn3)nc2c(N2C3CCC2CC3)n1 (stereo not drawn) [Compound 242] | < 0.01 µM | ≥ 0.1 µM
42 | C[C@@H](O)c1cc2cnc(Nc3ccc4c(n3)CCN(C(=O)CNC3COC3)C4)nc2c(N2C3CCC2CC3)n1 [Compound 234] | 0.01 to 0.1 µM | ≥ 0.1 µM
43 | C[C@@H](O)c1cc2cnc(Nc3ccc4c(n3)CCN(C(=O)[C@H]3CCCN3C)C4)nc2c(N2C3CCC2CC3)n1 [Compound 224] | < 0.01 µM | ≥ 0.1 µM
